# Assay results from publication PMC10692721, “Drug discovery for heart failure targeting myosin-binding protein C” (The Journal of Biological Chemistry, 2023).
# Entries after “also recorded” stand apart in the source; their conditions may differ. Where a name gives a salt, the structure may show the parent alone.
# Key:
# [1] = tested on: TMR-cC0-C2; assay: Selleck library HTS, 532 nm excitation (FLT of TMR-cC0-C2 in presence of FMAL-actin); assay type: binding, human; conditions: for 532-nm Δτ, Repeat 1 / 532-nm Δτ, Repeat 2: initial screen, 30 μM compound; for 532-nm z-score (based on avg Δτ): robust z-score, hit threshold ±4, 30 μM compound
# [2] = tested on: TMR-fC1-C2 (C1-C2 of fast skeletal MyBP-C); assay: FLT-TMR concentration-response assay, fC1-C2; assay type: binding; conditions: for cC0-C2/fC1-C2 (ratio of FLT changes) / fC1-C2 FLT change (% change from DMSO, FLT of TMR-MyBP-C): 60 μM compound; for effect on FLT of TMR-fC1-C2 (in words): concentration-response, no actin
# Procedure: (§1) Compounds identified as initial hits were further examined to determine the concentration–response curves for seven conditions ([1]): FMAL-actin alone identified actin-binding compounds that alter the FLT of FMAL-actin ([2]).
# (§2) Fluorescence lifetime (FLT) measurements were acquired using a high-throughput FLT plate reader (Fluorescence Innovations, Inc) ([14], [27]), provided by Photonic Pharma LLC. […] The observed waveforms were analyzed as described previously ([15], [28]).
# (§3) The primary hits were dissolved in DMSO to make a 10 mM stock solution, which was serially diluted in 96-well mother plates. Hits were screened at eight concentrations (0.5–100 μM). […] Compounds (1 μl) were transferred from the mother plates into 384-well plates using a Mosquito HV liquid handler (TTP Labtech Ltd, Hertfordshire, UK). The same procedure of dispensing as for the pilot screening was applied in the concentration-response assays. Concentration dependence of the FLT-FRET (E/EDMSO) or FLT-TMR (Δτ) change data was fit to a Hill equation only under certain conditions to help guide the eye (Fig. 4).
# [3] = tested on: FMAL-actin plus TMR-cC0-C2; assay: Selleck library HTS, 473 nm excitation (FLT of FMAL-actin with TMR-cC0-C2, FLT-FRET); assay type: binding, human; conditions: for 473-nm Δτ, Repeat 1 / 473-nm Δτ, Repeat 2: initial screen, 30 μM compound; for 473-nm z-score (based on avg Δτ): robust z-score, hit threshold ±4, 30 μM compound
# How it was run: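 Donor fluorescence lifetime was then recorded. Waveforms were fit to a single exponential, and ΔFLT was obtained after a moving-median plate-gradient correction (half-row window), rescaled by the median DMSO lifetime.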
# [4] = tested on: PKA-phosphorylated TMR-cC0-C2 (cC0-C2#P); assay: FLT-TMR concentration-response assay, PKA-phosphorylated cC0-C2; assay type: binding, human; conditions: for cC0-C2#P FLT change (% change from DMSO, FLT of TMR-MyBP-C): 60 μM compound
# Procedure: as §1, §2, §3
# [5] = tested on: TMR-cC0-C2 (C0-C2 fragment of human cMyBP-C); assay: FLT-TMR concentration-response assay (FLT of TMR on cC0-C2, no actin); assay type: binding; conditions: for cC0-C2/cC0-C2#P (ratio of FLT changes) / cC0-C2 FLT change (% change from DMSO, FLT of TMR-MyBP-C): 60 μM compound; for effect on FLT of TMR-cC0-C2 (in words): concentration-response, no actin
# How it was run: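 Hits tested at eight concentrations (0.5–100 μM) and read on a high-throughput fluorescence lifetime plate reader. Hill fits applied only under certain conditions.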
# [6] = tested on: rabbit fast skeletal (psoas) myofibrils; assay: Skeletal myofibril ATPase assay; assay type: biochemical; conditions: 50 μM compound; for effect on skeletal MF ATPase activity (in words): pCa 8 to pCa 4
# Procedure: Rabbit psoas and bovine cardiac myofibrils were prepared as described in our previous study ([17]). An enzyme-coupled, NADH-linked ATPase assay was used to measure skeletal and cardiac myofibril ATPase activity in 96-well microplates at 23 °C. Ionic strength was maintained below 0.2 M, so myofilaments remained insoluble and stable ([32]). To achieve optimal enzymatic activities, buffers for skeletal and cardiac myofibrils differed slightly ([33], [34]): skeletal in 50 mM MOPS, 100 mM KCl, 5 mM MgCl2, 1 mM EGTA, pH 7.0; cardiac in 20 mM MOPS, 35 mM NaCl, 5 mM MgCl2, 1 mM EGTA, pH 7.0. Each well in the microplate contained an assay mix of 0.84 mM phosphoenolpyruvate, 0.17 mM NADH, 10 U/vol pyruvate kinase, 20 U/vol lactate dehydrogenase. The concentration of free Ca^2+ was controlled by EGTA buffering ([35]). Myofibrils were dispensed in microplates with a multichannel pipette and were incubated with assay mix plus compound of interest for 20 min at 23 °C. The concentration of myofibrils used was 0.01 mg/ml for skeletal and 0.05 mg/ml for cardiac myofibrils. The assay was started upon the addition of ATP, at a final concentration of 2.1 mM (total volume to 200 μl), and absorbance was recorded at 340 nm in a SpectraMax Plus microplate spectrophotometer from Molecular Devices. The steady-state myofibrillar ATPase rate was measured from NADH oxidation, measured as the rate of decrease in absorption at 340 nm for 30 min, with absorption data collected every 15 s. All data and statistical analysis of steady-state kinetics were conducted with the OriginPro program. The results were fitted with the Hill equation:(6) V=V0+(Vmax/1+10^−n∗^(pCa50−pCa)) where V is the ATPase rate and n is the Hill coefficient.
# ATPase activity is reported on the μmol ATP/mg protein/min scale. Average data are presented as mean ± SD. Sample means are derived from three different myofibril preps (N = 3), each done in duplicate (n = 6).
# The effects of compounds on ATPase activity of myofibrils were determined in the presence of 50 μM compound, across a 12-point pCa range from 4.0 (activation) to 8.0 (relaxation). The calcium sensitivity (pCa50) was determined by fitting the curves to the Hill equation. In all experiments, a 1% DMSO-only control was included. The normalized ATPase activity of the selected compounds can be found in Figure 6.
# [7] = tested on: FMAL-actin/TMR-cC0-C2 interaction; assay: FLT-FRET concentration-response assay, FMAL-actin plus TMR-cC0-C2; assay type: binding, human; conditions: for effect on FLT-FRET / binding between FMAL-actin and TMR-cC0-C2 (in words): unphosphorylated cC0-C2; for specificity of FLT-FRET effect for unphosphorylated over phosphorylated cC0-C2: effect on cC0-C2 compared to phosphorylated cC0-C2 (Tables 1 and 2)
# Procedure: as §1, §2, §3
# [8] = tested on: FMAL-actin/TMR-fC1-C2 interaction; assay: FLT-FRET concentration-response assay, FMAL-actin plus TMR-fC1-C2; assay type: binding
# Procedure: as §1, §2, §3
# [9] = tested on: FMAL-actin/PKA-phosphorylated TMR-cC0-C2 interaction; assay: FLT-FRET concentration-response assay, FMAL-actin plus PKA-phosphorylated TMR-cC0-C2; assay type: binding, human; conditions: phosphorylated cC0-C2
# Procedure: as §1, §2, §3
effect on skeletal MF ATPase activity (in words) [6],effect on FLT-FRET / binding between FMAL-actin and TMR-cC0-C2 (in words) [7],effect on FLT-FRET / binding between FMAL-actin and TMR-fC1-C2 (in words) [8],effect on FLT-FRET / binding between FMAL-actin and PKA-phosphorylated TMR-cC0-C2 (in words) [9],Structure (SMILES),"532-nm Δτ, Repeat 1 [1]","532-nm Δτ, Repeat 2 [1]",532-nm z-score (based on avg Δτ) [1],cC0-C2/fC1-C2 (ratio of FLT changes) [2],"fC1-C2 FLT change (% change from DMSO, FLT of TMR-MyBP-C) [2]","473-nm Δτ, Repeat 1 [3]","473-nm Δτ, Repeat 2 [3]",473-nm z-score (based on avg Δτ) [3],"cC0-C2#P FLT change (% change from DMSO, FLT of TMR-MyBP-C) [4]",cC0-C2/cC0-C2#P (ratio of FLT changes) [5],"cC0-C2 FLT change (% change from DMSO, FLT of TMR-MyBP-C) [5]",effect on FLT of TMR-fC1-C2 (in words) [2],effect on FLT of TMR-cC0-C2 (in words) [5],specificity of FLT-FRET effect for unphosphorylated over phosphorylated cC0-C2 [7],other results
affected ATPase,–,–,–,NC(=O)c1cc[n+](CC2=C(C(=O)O)N3C(=O)[C@@H](NC(=O)[C@@H](c4ccccc4)S(=O)(=O)[O-])[C@H]3SC2)cc1 [Cefsulodin sodium],0.114 ns,0.083 ns,6.07,0.8,11.5%,0.394 ns,0.316 ns,19.91,8.1%,1.1,9.1%,–,–,–,effect on skeletal MF ATPase activity (in words) ([6]; listed as Cefsoludin sodium): affected
–,decreased,decreased,decreased,CC(C(=O)O)c1ccc2c(c1)CC(=O)c1ccccc1S2 (stereo not shown) [Zaltoprofen],-0.015 ns,0.015 ns,0.04,–,–,0.113 ns,0.083 ns,5.52,–,–,–,do not affect,do not affect,stronger reduction of FRET with non-phosphorylated than phosphorylated,–
affected ATPase,–,–,–,CO/N=C(\C(=O)N[C@@H]1C(=O)N2C(C(=O)O)=C(C[N+]3(C)CCCC3)CS[C@H]12)c1csc(N)n1 [Cefepime dihydrochloride monohydrate],0.006 ns,-0.096 ns,-2.70,–,–,0.127 ns,0.102 ns,6.43,–,–,–,–,–,–,"effects on actin binding (FRET) ([7]; range over cC0-C2, phosphorylated cC0-C2 and fC1-C2): 13–35%; reduction in actin binding (fC1-C2-actin FRET) ([8]; skeletal MyBP-C): 13%"
–,decreased,decreased,decreased,CCN(C(=O)c1c(O)c2c(Cl)cccc2n(C)c1=O)c1ccccc1 [Laquinimod],-0.017 ns,-0.016 ns,-0.99,–,–,0.109 ns,0.071 ns,5.08,–,–,–,do not affect,do not affect,stronger reduction of FRET with non-phosphorylated than phosphorylated,–
–,decreased,decreased,decreased,COC(=O)N[C@H](C(=O)N1CCC[C@H]1c1nc(-c2ccc3c(c2)O[C@@H](c2ccccc2)n2c-3cc3cc(-c4c[nH]c([C@@H]5CCCN5C(=O)[C@@H](NC(=O)OC)C(C)C)n4)ccc32)c[nH]1)C(C)C [Elbasvir],-0.002 ns,0.011 ns,0.31,–,–,0.142 ns,0.080 ns,6.24,–,–,–,do not affect,do not affect,5 fold,–
–,decreased,decreased,decreased,CCC(C)(Oc1ccc(C2(c3ccc(OC(C)(CC)C(=O)O)cc3)CCCCC2)cc1)C(=O)O (stereo not shown) [Clinofibrate],0.006 ns,0.016 ns,0.70,–,–,0.090 ns,0.075 ns,4.65,–,–,–,do not affect,do not affect,stronger reduction of FRET with non-phosphorylated than phosphorylated,–
affected,–,–,–,O=C(Nc1cccc2c(=O)cc(-c3nnn[nH]3)oc12)c1ccc(OCCCCc2ccccc2)cc1 [Pranlukast],0.073 ns,0.116 ns,5.80,0.6,50.3%,0.061 ns,0.008 ns,1.95,50.1%,0.6,30.7%,–,–,–,effect on skeletal MF ATPase activity (in words) ([6]; listed as Pranleukast): affected ATPase

Structure (SMILES),effect on skeletal MF ATPase activity (in words) [6],effect on FLT-FRET / binding between FMAL-actin and TMR-cC0-C2 (in words) [7],effect on FLT-FRET / binding between FMAL-actin and TMR-fC1-C2 (in words) [8],effect on FLT-FRET / binding between FMAL-actin and PKA-phosphorylated TMR-cC0-C2 (in words) [9],"532-nm Δτ, Repeat 1 [1]","532-nm Δτ, Repeat 2 [1]",532-nm z-score (based on avg Δτ) [1],cC0-C2/fC1-C2 (ratio of FLT changes) [2],"fC1-C2 FLT change (% change from DMSO, FLT of TMR-MyBP-C) [2]","473-nm Δτ, Repeat 1 [3]","473-nm Δτ, Repeat 2 [3]",473-nm z-score (based on avg Δτ) [3],"cC0-C2#P FLT change (% change from DMSO, FLT of TMR-MyBP-C) [4]",cC0-C2/cC0-C2#P (ratio of FLT changes) [5],"cC0-C2 FLT change (% change from DMSO, FLT of TMR-MyBP-C) [5]",effect on FLT of TMR-fC1-C2 (in words) [2],effect on FLT of TMR-cC0-C2 (in words) [5],specificity of FLT-FRET effect for unphosphorylated over phosphorylated cC0-C2 [7],other results
C[C@@H](O)[C@H]1C(=O)N2C(C(=O)[O-])=C(S[C@@H]3CN[C@H](C(=O)Nc4cccc(C(=O)O)c4)C3)[C@H](C)[C@H]12.[Na+] [Ertapenem sodium],marked increase in ATPase activity at pCa 8; also recorded: affected ATPase,–,–,–,0.079 ns,0.157 ns,7.23,0.8,12.2%,0.353 ns,0.231 ns,16.37,8.0%,1.3,10.2%,–,–,–,effect on Ca^2+-sensitivity of skeletal MF ATPase (in words) [6]: altered Ca^2+ sensitivity
C#Cc1cccc(Nc2ncnc3cc(OCCOC)c(OCCOC)cc23)c1 [Erlotinib],affected; also recorded: affect skeletal muscle ATPase,decrease,–,–,0.100 ns,0.119 ns,6.74,1.2,8.5%,0.026 ns,0.001 ns,0.78,9.7%,1.0,9.8%,increases,increases; also recorded: affect,–,"effect on FLT of PKA-phosphorylated TMR-cC0-C2 (in words) ([4]; concentration-response, no actin): increases"
